Measurements from US20070010671A1, “Novel quinazoline derivatives and methods of treatment related to the use thereof” (priority 2003, published 2007).

Each compound was assayed against MCH receptor (Homo sapiens, UniProt Q99705) (assay: High throughput functional screening FLIPR/FDSS6000: inhibition of MCH-evoked intracellular Ca2+ changes). Conditions: class by percent of control at 10^-7 M or IC50.
Format: cell-based
Procedure, shortened: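 Cells expressing constitutively active MCH receptor, loaded with 4 μM Fluo4-AM for 1 h at 37 °C, were pretreated 3 min with compound, then challenged with MCH (50 nM for antagonist testing). MCH-evoked [Ca2+]i transients followed by FLIPR or FDSS (ex 488/em 530 nm) over 290 s.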

| Compound | class |
| --- | --- |
| COC(=O)c1cccc(NC(=S)NC[C@H]2CC[C@@H](Nc3nc(N(C)C)c4ccccc4n3)CC2)c1 [compound 688] | 3 (Class 3: The value of percent of control at 10^−7 M was more than 60% or the value of IC50 was more than 200 nM.) |
| COc1cc(OC)c(NC(=S)N[C@H]2CC[C@@H](Nc3nc(N(C)C)c4ccccc4n3)CC2)cc1Cl [compound 324, N-(5-chloro-2,4-dimethoxyphenyl)-N′-(cis-4-{[4-(dimethylamino)quinazolin-2-yl]amino}cyclohexyl)thiourea] | 1 (Class 1: The value of percent of control at 10^−7 M was less than 40% or the value of IC50 was less than 50 nM.) |
| CN(C)c1nc(N[C@H]2CC[C@@H](CNC(=O)Nc3ccccc3OC(F)F)CC2)nc2ccccc12 [compound 469, N-[2-(difluoromethoxy)phenyl]-N′-[(cis-4-{[4-(dimethylamino)quinazolin-2-yl]amino}cyclohexyl)methyl]urea] | 2 (Class 2: The value of percent of control at 10^−7 M was from 40% to 60% or the value of IC50 was from 50 nM to 200 nM.) |
| Cc1cc([N+](=O)[O-])ccc1NC(=S)NC[C@H]1CC[C@@H](Nc2nc(N(C)C)c3ccccc3n2)CC1 [compound 726] | 3 (Class 3: The value of percent of control at 10^−7 M was more than 60% or the value of IC50 was more than 200 nM.) |
| CN(C)c1nc(N[C@H]2CC[C@@H](CNC(=S)Nc3ccccc3F)CC2)nc2ccccc12 [compound 642] | 3 (Class 3: The value of percent of control at 10^−7 M was more than 60% or the value of IC50 was more than 200 nM.) |
| COc1ccc(NC(=S)N[C@H]2CC[C@@H](Nc3nc(N(C)C)c4ccccc4n3)CC2)cc1OC [compound 204] | 1 (Class 1: The value of percent of control at 10^−7 M was less than 40% or the value of IC50 was less than 50 nM.) |
| CN(C)c1nc(N[C@H]2CC[C@@H](CNC(=S)Nc3c(F)cc(F)cc3F)CC2)nc2ccccc12 [compound 671] | 3 (Class 3: The value of percent of control at 10^−7 M was more than 60% or the value of IC50 was more than 200 nM.) |
| COc1ccccc1CNC(=S)N[C@H]1CC[C@@H](Nc2nc(N(C)C)c3ccccc3n2)CC1 [compound 367, N-(cis-4-{[4-(dimethylamino)quinazolin-2-yl]amino}cyclohexyl)-N′-(2-methoxybenzyl)thiourea] | 2 (Class 2: The value of percent of control at 10^−7 M was from 40% to 60% or the value of IC50 was from 50 nM to 200 nM.) |
| CN(C)c1nc(N[C@H]2CC[C@@H](CNC(=O)Nc3c(F)cc(Br)cc3Br)CC2)nc2ccccc12 [compound 476, N-(2,4-dibromo-6-fluorophenyl)-N′-[(cis-4-{[4-(dimethylamino)quinazolin-2-yl]amino}cyclohexyl)methyl]urea] | 1 (Class 1: The value of percent of control at 10^−7 M was less than 40% or the value of IC50 was less than 50 nM.) |

Same assay, conditions: class by percent of control at 10^-7 M or by IC50; read-out: class

| IC50 [µM] | Compound |
| --- | --- |
| 0.05 to 0.2 | CN(C)c1nc(N[C@H]2CC[C@@H](NC(=O)Nc3cc([N+](=O)[O-])ccc3Cl)CC2)nc2ccccc12 [compound 88] |
| > 0.2 | CCN(CC)c1ccc(NC(=S)NC[C@H]2CC[C@@H](Nc3nc(N(C)C)c4ccccc4n3)CC2)cc1 [compound 811] |

Same assay, conditions: class by percent of control at 10^−7 M or by IC50; read-out: class

| IC50 [µM] | Compound |
| --- | --- |
| 0.05 to 0.2 | COc1cc(CNC(=O)[C@H]2CC[C@@H](Nc3nc(N(C)C)c4cc(F)c(F)cc4n3)CC2)cc(OC)c1 [Example 993, cis-N-(3,5-dimethoxybenzyl)-4-{[4-(dimethylamino)-6,7-difluoroquinazolin-2-yl]amino}cyclohexanecarboxamide] |
| 0.05 to 0.2 | CN(C)c1nc(N[C@H]2CC[C@@H](NC(=S)Nc3ccccc3Br)CC2)nc2ccccc12 [Example 1014, N-(2-bromophenyl)-N′-(cis-4-{[4-(dimethylamino)quinazolin-2-yl]amino}cyclohexyl)thiourea] |
| 0.05 to 0.2 | CN(C)c1nc(N[C@H]2CC[C@@H](CNC(=O)C(O)c3cccc(C(F)(F)F)c3)CC2)nc2ccccc12 (relative stereo) [Example 1104, N-[(cis-4-{[4-(dimethylamino)quinazolin-2-yl]amino}-cyclohexyl)-methyl]-2-hydroxy-2-[3-(trifluoromethyl)phenyl]-acetamide] |
